Measured values from patent publication US20250018030A1, “PHARMACEUTICAL COMPOSITION FOR PROMOTING CANCER IMMUNOTHERAPY AND METHOD FOR PROMOTING CANCER IMMUNOTHERAPY” (China Medical University, priority 2023, published 2025).

Key:
Type in all cases: cell-based, Mouse
Tc1 cells = assay: Immunoblotting of PI3K/AKT/mTOR and STAT4 in Tc1 cells
Description: The protein concentrations of the total cell lysate or the extracted histones were determined by a Bradford assay (Bio-Rad Laboratories). Immunoblot analysis was performed with 10% sodium dodecyl sulfate-polyacrylamide gel electrophoresis, followed by overnight incubation with primary antibodies (1:1000 dilution) and incubation with horseradish peroxidase-conjugated secondary antibodies (1:5000 dilution; GeneTex). The polyvinylidene difluoride membranes were probed with antibodies against UCP2, pPI3K/PI3K, pAKT/AKT, pmTOR/mTOR, pSTAT1/STAT1, pSTAT4/STAT4, and H3K9Ac, which were purchased from Cell Signaling Technology or Genetex. Actin or Lamin B1 (Merck-Millipore) was used as the loading control. Signals were detected using an ECL solution (GE) and optical density quantified using ImageJ software.

[1] = tested on: Th2 cells and regulatory T cells (Treg); assay: Populations of Th2 cells and Treg cells after genipin; conditions: genipin-treated; data not shown
Description: (§1) Mouse lymph nodes and spleens were harvested, and naïve CD4 or CD8 T cells isolated via magnetic bead separation (STEMCELL Technologies) and activated in α-CD3 (10 μg/ml) and α-CD28 (1 μg/ml) pre-coated 96-well plates. Skewing conditions were as follows: Th1 cells/Tc1 cells ([…] 10 μ/ml α-IL-4), Th2 cells/Tc2 cells (20 ng/ml IL-4 and 10 μ/ml α-IFN-γ), Th17 cells/Tc17 cells (20 ng/ml IL-6, 1.25 ng/ml […], 20 ng/ml IL-1β, 20 ng/ml IL-23, 10 μg/ml α-IFN-γ and 10 μg/ml α-IL-4), and Treg cells (5 ng/ml TGF-β, 10 μg/ml α-IFN-γ and 10 μg/ml α-IL-4) in the indicated medium. Cells were cultured for 4-5 days followed by treatment with genipin (3.125 μM, 6.25 μM, 12.5 μM) or DMSO for 12-16 hours.
(§2) Monoclonal antibodies were purchased from BD Biosciences or eBioscience. For intracellular cytokine staining (ICS), cells were first restimulated by PMA/ionomycin for 5 hours in the presence of GolgiStop (BD Biosciences), followed by surface epitope staining markers before being fixed/permeabilized (BD Cytofix/Cytoperm™) and stained with antibodies targeting intracellular antigens. Cells were finally fixed with 1.5% formaldehyde for 10 minutes at room temperature and analyzed on a FACSVerse flow cytometer (BD Bioscience). Data were analyzed using FlowJo software (Tree Star Inc.).

Tc17 cells = assay: Intracellular cytokine staining / flow cytometry of genipin-treated skewed Tc17 cells; conditions: FIG. 1E-1G
Description: as §1, §2

Th1 cells = assay: Cytokine staining of genipin-treated skewed Th1 cells; conditions: data not shown
Description: as §1, §2

COC(=O)C1=CO[C@@H](O)[C@@H]2C(CO)=CC[C@H]12 [genipin]
STAT4 levels / activation (Tc1 cells; genipin 12 hours, FIG. 2Q): STAT4 activation
Expression of mTOR and its upstream kinases PI3K and AKT (Tc1 cells; genipin-treated Tc1 cells): increased
Population of Th2 cells [1]: nor significantly altering the populations
Population of regulatory T cells (Treg) [1]: nor significantly altering the populations
IFN-γ production in Tc17 cells (Tc17 cells): promoted IFN-γ
IL-17 expression in Tc17 cells (Tc17 cells): without impacting IL-17 expression
IFN-γ in Th1 cells (Th1 cells): increased IFN-γ
